Data reported in PubChem BioAssay (NCI).
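Grown in 96-well plates, cells were treated for 48 hours with each compound at five concentrations. Insufficient inhibition: endpoint recorded as highest concentration tested. GI50 is the concentration that inhibits growth by half. TGI: total growth inhibition.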

How the values were obtained:
Assay in all cases: NCI anticancer screen, dose series, 48 h
786-0 renal = tested on: 786-0 renal
A498 renal = tested on: A498 renal
A549 NSCLC = tested on: A549 NSCLC
ACHN renal = tested on: ACHN renal
BT-549 breast = tested on: BT-549 breast
CAKI-1 renal = tested on: CAKI-1 renal
CCRF-CEM leukemia = tested on: CCRF-CEM leukemia
COLO 205 colon = tested on: COLO 205 colon
DU-145 prostate = tested on: DU-145 prostate
EKVX NSCLC = tested on: EKVX NSCLC
HCC-2998 colon = tested on: HCC-2998 colon
HCT-116 colon = tested on: HCT-116 colon
HCT-15 colon = tested on: HCT-15 colon
HL-60(TB) leukemia = tested on: HL-60(TB) leukemia
HOP-62 NSCLC = tested on: HOP-62 NSCLC
HOP-92 NSCLC = tested on: HOP-92 NSCLC
HS 578T breast = tested on: HS 578T breast
HT29 colon = tested on: HT29 colon
IGROV1 ovarian = tested on: IGROV1 ovarian
K-562 leukemia = tested on: K-562 leukemia
KM12 colon = tested on: KM12 colon
LOX IMVI melanoma = tested on: LOX IMVI melanoma
M14 melanoma = tested on: M14 melanoma
MALME-3M melanoma = tested on: MALME-3M melanoma
MCF7 breast = tested on: MCF7 breast
MDA-MB-231 breast = tested on: MDA-MB-231 breast
MDA-MB-435 = tested on: MDA-MB-435
MOLT-4 leukemia = tested on: MOLT-4 leukemia
NCI-H226 lung = tested on: NCI-H226 lung
NCI-H23 lung = tested on: NCI-H23 lung
NCI-H460 lung = tested on: NCI-H460 lung
NCI-H522 lung = tested on: NCI-H522 lung
NCI/ADR-RES ovarian = tested on: NCI/ADR-RES ovarian
OVCAR-3 ovarian = tested on: OVCAR-3 ovarian
OVCAR-4 ovarian = tested on: OVCAR-4 ovarian
OVCAR-5 ovarian = tested on: OVCAR-5 ovarian
OVCAR-8 ovarian = tested on: OVCAR-8 ovarian
PC-3 prostate = tested on: PC-3 prostate
RPMI-8226 leukemia = tested on: RPMI-8226 leukemia
RXF 393 renal = tested on: RXF 393 renal
SF-268 CNS = tested on: SF-268 CNS
SF-295 CNS = tested on: SF-295 CNS
SF-539 CNS = tested on: SF-539 CNS
SK-MEL-2 melanoma = tested on: SK-MEL-2 melanoma
SK-MEL-28 melanoma = tested on: SK-MEL-28 melanoma
SK-MEL-5 melanoma = tested on: SK-MEL-5 melanoma
SK-OV-3 ovarian = tested on: SK-OV-3 ovarian
SN12C renal = tested on: SN12C renal
SNB-19 CNS = tested on: SNB-19 CNS
SNB-75 CNS = tested on: SNB-75 CNS
SR leukemia = tested on: SR leukemia
SW-620 colon = tested on: SW-620 colon
T-47D breast = tested on: T-47D breast
TK-10 renal = tested on: TK-10 renal
U251 CNS = tested on: U251 CNS
UACC-257 melanoma = tested on: UACC-257 melanoma
UACC-62 melanoma = tested on: UACC-62 melanoma
UO-31 renal = tested on: UO-31 renal

## CC(C)c1ccc(NC(=O)Cc2ccc(Nc3ncnc4cc(-c5cnn(CCN(C)C)c5)ccc34)cc2)cc1
786-0 renal
  GI50: 1.63 µM
  TGI: 3.96 µM
A498 renal
  GI50: 0.128 µM
  TGI: > 10 µM
A549 NSCLC
  GI50: 1.2 µM
  TGI: 4.15 µM
ACHN renal
  GI50: 2.45 µM
  TGI: > 10 µM
BT-549 breast
  GI50: 3.96 µM
  TGI: > 10 µM
CAKI-1 renal
  GI50: 1.18 µM
  TGI: 2.88 µM
CCRF-CEM leukemia
  GI50: 0.0522 µM
  TGI: 4.68 µM
COLO 205 colon
  GI50: 0.218 µM
  TGI: 1.83 µM
DU-145 prostate
  GI50: 1.46 µM
  TGI: 2.83 µM
EKVX NSCLC
  GI50: 2.42 µM
  TGI: 9.23 µM
HCC-2998 colon
  GI50: 1.66 µM
  TGI: 3.42 µM
HCT-116 colon
  GI50: 1.19 µM
  TGI: 2.7 µM
HCT-15 colon
  GI50: 1.55 µM
  TGI: 4.08 µM
HL-60(TB) leukemia
  GI50: 2.84 µM
  TGI: > 10 µM
HOP-62 NSCLC
  GI50: > 10 µM
  TGI: > 10 µM
HOP-92 NSCLC
  GI50: 3.44 µM
  TGI: > 10 µM
HS 578T breast
  GI50: 0.795 µM
  TGI: 4.66 µM
HT29 colon
  GI50: 1.4 µM
  TGI: 3.49 µM
IGROV1 ovarian
  GI50: 1.48 µM
  TGI: 3.64 µM
K-562 leukemia
  GI50: 2.12 µM
  TGI: 5.94 µM
KM12 colon
  GI50: 0.0641 µM
  TGI: 1.39 µM
LOX IMVI melanoma
  GI50: 1.36 µM
  TGI: 3.37 µM
M14 melanoma
  GI50: 1.28 µM
  TGI: 2.97 µM
MALME-3M melanoma
  GI50: > 10 µM
  TGI: > 10 µM
MCF7 breast
  GI50: 1.06 µM
  TGI: 3.04 µM
MDA-MB-231 breast
  GI50: 1.44 µM
  TGI: 3.14 µM
MDA-MB-435
  GI50: 2.34 µM
  TGI: > 10 µM
MOLT-4 leukemia
  GI50: 1.43 µM
  TGI: 4.73 µM
NCI-H226 lung
  GI50: > 10 µM
  TGI: > 10 µM
NCI-H23 lung
  GI50: 4.14 µM
  TGI: > 10 µM
NCI-H460 lung
  GI50: 0.19 µM
  TGI: 2.33 µM
NCI-H522 lung
  GI50: 1.56 µM
  TGI: 3.94 µM
NCI/ADR-RES ovarian
  GI50: > 10 µM
  TGI: > 10 µM
OVCAR-3 ovarian
  GI50: 1.44 µM
  TGI: 2.94 µM
OVCAR-4 ovarian
  GI50: 1.51 µM
  TGI: 3.05 µM
OVCAR-5 ovarian
  GI50: 1.44 µM
  TGI: 3.28 µM
OVCAR-8 ovarian
  GI50: 1.29 µM
  TGI: 3.54 µM
PC-3 prostate
  GI50: 1.31 µM
  TGI: 2.92 µM
RPMI-8226 leukemia
  GI50: 1.95 µM
  TGI: 4.75 µM
RXF 393 renal
  GI50: 1.3 µM
  TGI: 3.43 µM
SF-268 CNS
  GI50: 1.32 µM
  TGI: 3.09 µM
SF-295 CNS
  GI50: 2.47 µM
  TGI: > 10 µM
SF-539 CNS
  GI50: 0.571 µM
  TGI: 2.39 µM
SK-MEL-2 melanoma
  GI50: > 10 µM
  TGI: > 10 µM
SK-MEL-28 melanoma
  GI50: > 10 µM
  TGI: > 10 µM
SK-MEL-5 melanoma
  GI50: > 10 µM
  TGI: > 10 µM
SK-OV-3 ovarian
  GI50: 1.61 µM
  TGI: 4.81 µM
SN12C renal
  GI50: 1.34 µM
  TGI: 3.05 µM
SNB-19 CNS
  GI50: 1.27 µM
  TGI: 3.39 µM
SNB-75 CNS
  GI50: 0.162 µM
  TGI: 2.03 µM
SR leukemia
  GI50: 0.107 µM
  TGI: 2.42 µM
SW-620 colon
  GI50: 1.18 µM
  TGI: 2.76 µM
T-47D breast
  GI50: 1.38 µM
  TGI: 3.73 µM
TK-10 renal
  GI50: 1.72 µM
  TGI: 3.79 µM
U251 CNS
  GI50: 1.7 µM
  TGI: 4.5 µM
UACC-257 melanoma
  GI50: > 10 µM
  TGI: > 10 µM
UACC-62 melanoma
  GI50: > 10 µM
  TGI: > 10 µM
UO-31 renal
  GI50: 3.02 µM
  TGI: > 10 µM

## Cc1cc(O)c(-c2ccc([C@@H](C)CN(C)C)cc2)c2c1[nH]c(=O)c1sccc12
786-0 renal
  GI50: 0.248 µM
  TGI: 5.43 µM
A498 renal
  GI50: 0.265 µM
  TGI: 0.929 µM
A549 NSCLC
  GI50: 0.647 µM
  TGI: 14.6 µM
ACHN renal
  GI50: 0.794 µM
  TGI: 7.95 µM
BT-549 breast
  GI50: 0.574 µM
  TGI: 3.44 µM
CAKI-1 renal
  GI50: 1.82 µM
  TGI: 33.4 µM
CCRF-CEM leukemia
  GI50: 1.77 µM
  TGI: > 41.9 µM
COLO 205 colon
  GI50: 2.18 µM
  TGI: 5.2 µM
DU-145 prostate
  GI50: 0.528 µM
  TGI: 53.3 µM
EKVX NSCLC
  GI50: 0.585 µM
  TGI: 6.23 µM
HCC-2998 colon
  GI50: 1.06 µM
  TGI: 12.6 µM
HCT-116 colon
  GI50: 0.406 µM
  TGI: 8.87 µM
HCT-15 colon
  GI50: 1.42 µM
  TGI: 31.3 µM
HL-60(TB) leukemia
  GI50: 0.453 µM
  TGI: 7.38 µM
HOP-62 NSCLC
  GI50: 0.886 µM
  TGI: 5.57 µM
HOP-92 NSCLC
  GI50: 0.848 µM
  TGI: 5.35 µM
HS 578T breast
  GI50: 0.207 µM
  TGI: 20.8 µM
HT29 colon
  GI50: 2.76 µM
  TGI: 7.81 µM
IGROV1 ovarian
  GI50: 0.534 µM
  TGI: 5.16 µM
K-562 leukemia
  GI50: 0.482 µM
  TGI: > 60.5 µM
KM12 colon
  GI50: 0.482 µM
  TGI: 6.71 µM
LOX IMVI melanoma
  GI50: 0.785 µM
  TGI: 27.5 µM
M14 melanoma
  GI50: 0.705 µM
  TGI: 4.34 µM
MALME-3M melanoma
  GI50: 1.53 µM
  TGI: 4.59 µM
MCF7 breast
  GI50: 0.103 µM
  TGI: 3.14 µM
MDA-MB-231 breast
  GI50: 0.608 µM
  TGI: 28.6 µM
MDA-MB-435
  GI50: 0.981 µM
  TGI: 15.2 µM
MOLT-4 leukemia
  GI50: 1.69 µM
  TGI: 17.7 µM
NCI-H226 lung
  GI50: 1.75 µM
  TGI: 18.4 µM
NCI-H23 lung
  GI50: 1.06 µM
  TGI: 6.41 µM
NCI-H460 lung
  GI50: 0.335 µM
  TGI: > 49.1 µM
NCI-H522 lung
  GI50: 0.436 µM
  TGI: 2.9 µM
NCI/ADR-RES ovarian
  GI50: 2.72 µM
  TGI: 24.1 µM
OVCAR-3 ovarian
  GI50: 0.613 µM
  TGI: 6.17 µM
OVCAR-4 ovarian
  GI50: 0.769 µM
  TGI: 10.6 µM
OVCAR-5 ovarian
  GI50: 2.25 µM
  TGI: 17.5 µM
OVCAR-8 ovarian
  GI50: 0.983 µM
  TGI: 34.9 µM
PC-3 prostate
  GI50: 0.667 µM
  TGI: 18 µM
RPMI-8226 leukemia
  GI50: 0.427 µM
  TGI: 2.74 µM
RXF 393 renal
  GI50: 0.167 µM
  TGI: 0.53 µM
SF-268 CNS
  GI50: 1.14 µM
  TGI: 14.8 µM
SF-295 CNS
  GI50: 0.73 µM
  TGI: 6.07 µM
SF-539 CNS
  GI50: 0.219 µM
  TGI: 1.97 µM
SK-MEL-2 melanoma
  GI50: 0.679 µM
  TGI: 3.04 µM
SK-MEL-28 melanoma
  GI50: 1.33 µM
  TGI: 5.56 µM
SK-MEL-5 melanoma
  GI50: 0.805 µM
  TGI: 3.98 µM
SK-OV-3 ovarian
  GI50: 0.332 µM
  TGI: 3.65 µM
SN12C renal
  GI50: 0.627 µM
  TGI: 20.7 µM
SNB-19 CNS
  GI50: 0.724 µM
  TGI: 23.3 µM
SNB-75 CNS
  GI50: 0.206 µM
  TGI: 3.02 µM
SR leukemia
  GI50: 0.363 µM
  TGI: 26.6 µM
SW-620 colon
  GI50: 0.556 µM
  TGI: > 61.9 µM
T-47D breast
  GI50: 0.309 µM
  TGI: 5.19 µM
TK-10 renal
  GI50: 0.647 µM
  TGI: 5.87 µM
U251 CNS
  GI50: 0.399 µM
  TGI: 17.4 µM
UACC-257 melanoma
  GI50: 1.76 µM
  TGI: 6.86 µM
UACC-62 melanoma
  GI50: 1.32 µM
  TGI: 4.99 µM
UO-31 renal
  GI50: 0.287 µM
  TGI: 1.88 µM
